This note sets out measurements from ChEMBL document CHEMBL1138741, “Virulence regulation and quorum sensing in staphylococcal infections: competitive AgrC antagonists as quorum sensing inhibitors” (J Med Chem, 2004).

Values joined by “and” are separate entries in the source; they are usually repeats but may differ in a detail not shown here. Equal values may be shown once. Where a SMILES comes first, the peptide text is derived from it.

Assay [1] deals with T1, Receptor-histidine kinase AgrC (Staphylococcus aureus, UniProt O07911).
T1 sequence (O07911 whole entry): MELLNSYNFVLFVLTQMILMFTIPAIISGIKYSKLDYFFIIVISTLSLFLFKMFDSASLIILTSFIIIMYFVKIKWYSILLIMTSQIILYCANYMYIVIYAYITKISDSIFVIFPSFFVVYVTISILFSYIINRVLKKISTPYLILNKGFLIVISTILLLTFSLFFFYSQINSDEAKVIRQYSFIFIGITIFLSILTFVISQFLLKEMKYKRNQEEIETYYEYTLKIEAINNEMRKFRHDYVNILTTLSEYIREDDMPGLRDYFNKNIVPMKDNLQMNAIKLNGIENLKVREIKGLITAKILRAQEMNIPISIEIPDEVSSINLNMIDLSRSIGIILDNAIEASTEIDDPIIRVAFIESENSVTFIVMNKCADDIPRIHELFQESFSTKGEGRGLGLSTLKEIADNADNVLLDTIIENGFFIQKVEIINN
The assay is described as follows: Concentration required to inhibit quorum sensor of Staphylococcus aureus.

In assay [2] the target is T1, Receptor-histidine kinase AgrC. The assay is described as follows: Effective concentration to antagonise accessory gene regulator C1 of Staphylococcus aureus; range = 9-11 uM. It counts as functional.
For assay [3] the target is unchanged. Nature of the assay: Concentration required to antagonise accessory gene regulator C4 of Staphylococcus aureus. It counts as functional.
For assay [4] the target is unchanged. The assay is described as follows: Concentration required to antagonise accessory gene regulator C3 of Staphylococcus aureus. It counts as functional.
The target is the same in assay [5]. Nature of the assay: Effective concentration to antagonise accessory gene regulator C2 of Staphylococcus aureus. It counts as functional.
The target is the same in assay [6]. Nature of the assay: Antagonistic concentration for accessory gene regulator C1 of Staphylococcus aureus. It counts as functional.
Assay [7] shares this target. The assay is described as follows: Concentration required to antagonise accessory gene regulator C2 of Staphylococcus aureus. It counts as functional.
For assay [8] the target is unchanged. The assay is described as follows: Effective concentration to antagonise accessory gene regulator C4 of Staphylococcus aureus. It counts as functional.
Assay [9] shares this target. The assay is described as follows: Effective concentration to antagonise accessory gene regulator C3 of Staphylococcus aureus. It counts as functional.

Consider `CC[C@H](C)[C@@H]1NC(=O)[C@H](Cc2ccccc2)NC(=O)[C@H](C)NC(=O)[C@@H](NC(=O)[C@@H](NC(=O)[C@H](CO)NC(=O)[C@@H](N)Cc2ccc(O)cc2)[C@@H](C)O)CSC(=O)[C@@H](CCSC)NC1=O`, for which the IC50 in [1] is 256 nM and 30 nM.
In turn, `CC[C@H](C)[C@@H]1NC(=O)[C@H](Cc2ccccc2)NC(=O)[C@H](CC(=O)O)NC(=O)[C@@H](NC(=O)[C@@H](NC(=O)[C@H](CO)NC(=O)[C@@H](N)Cc2ccc(O)cc2)[C@@H](C)O)CSC(=O)[C@H](CCSC)NC1=O` (HELM PEPTIDE1{Y.S.T.C.D.F.I.M}$PEPTIDE1,PEPTIDE1,4:R3-8:R2$$$V2.0) gave an EC50 in assay [2] of 11000 nM.
`CC[C@H](C)[C@@H]1NC(=O)[C@H](Cc2ccccc2)NC(=O)[C@H](CC(=O)O)NC(=O)[C@@H](NC(C)=O)CSC(=O)[C@H](CCSC)NC1=O` (HELM PEPTIDE1{[ac].C.D.F.I.M}$PEPTIDE1,PEPTIDE1,2:R3-6:R2$$$V2.0) came in with a concentration for half-maximal inhibition (IC50) in assay [1] of 8000 nM.
Consider `CC(C)C[C@@H]1NC(=O)[C@H](CO)NC(=O)[C@H](CO)NC(=O)[C@@H](NC(=O)[C@H](C)NC(=O)[C@H](CC(N)=O)NC(=O)[C@@H](NC(=O)CN)C(C)C)CSC(=O)[C@H](Cc2ccccc2)NC1=O` [GVNACSSLF] (HELM PEPTIDE1{G.V.N.A.C.S.S.L.F}$PEPTIDE1,PEPTIDE1,5:R3-9:R2$$$V2.0), for which the results for the IC50 in [3] and in [4] were 86 nM and 1 nM, respectively. This molecule yielded an EC50 in assay [5] of 3.6 nM.
Consider `CC[C@H](C)[C@@H]1NC(=O)[C@H](Cc2ccccc2)NC(=O)[C@H](Cc2ccc(O)cc2)NC(=O)[C@@H](NC(=O)[C@@H](NC(=O)[C@H](CO)NC(=O)[C@@H](N)Cc2ccc(O)cc2)[C@@H](C)O)CSC(=O)[C@H](CCSC)NC1=O` [YSTCYFIM] (HELM PEPTIDE1{Y.S.T.C.Y.F.I.M}$PEPTIDE1,PEPTIDE1,4:R3-8:R2$$$V2.0), for which the figures for the IC50 in assay [4], in assay [6] and in [7] were 1 nM, 7000 nM and 4 nM, respectively. Further, in assay [8], the midpoint of the response, the EC50, lay at 13 nM.
For H-INCDFLL-OH, the IC50 in [3] was determined as 150 nM; in assay [6], 70 nM; in assay [7], 6 nM. The same molecule had an EC50 in assay [9] of 26 nM.

In general, IC50 refers to the concentration needed to halve the response being measured. A lower IC50 goes with inhibition by little substance. Broadly, the EC50 is the concentration giving half of the maximal effect. Read a low EC50 as greater potency.
